# Results taken from ChEMBL document CHEMBL1828515, “Pantolactams as androgen receptor antagonists for the topical suppression of sebum production” (Bioorg Med Chem Lett, 2011).
# Columns and labels:
# [1] = biological target: T1, Androgen receptor (Homo sapiens, UniProt P10275); test: Binding affinity to human androgen receptor
# T1 sequence (P10275 whole entry): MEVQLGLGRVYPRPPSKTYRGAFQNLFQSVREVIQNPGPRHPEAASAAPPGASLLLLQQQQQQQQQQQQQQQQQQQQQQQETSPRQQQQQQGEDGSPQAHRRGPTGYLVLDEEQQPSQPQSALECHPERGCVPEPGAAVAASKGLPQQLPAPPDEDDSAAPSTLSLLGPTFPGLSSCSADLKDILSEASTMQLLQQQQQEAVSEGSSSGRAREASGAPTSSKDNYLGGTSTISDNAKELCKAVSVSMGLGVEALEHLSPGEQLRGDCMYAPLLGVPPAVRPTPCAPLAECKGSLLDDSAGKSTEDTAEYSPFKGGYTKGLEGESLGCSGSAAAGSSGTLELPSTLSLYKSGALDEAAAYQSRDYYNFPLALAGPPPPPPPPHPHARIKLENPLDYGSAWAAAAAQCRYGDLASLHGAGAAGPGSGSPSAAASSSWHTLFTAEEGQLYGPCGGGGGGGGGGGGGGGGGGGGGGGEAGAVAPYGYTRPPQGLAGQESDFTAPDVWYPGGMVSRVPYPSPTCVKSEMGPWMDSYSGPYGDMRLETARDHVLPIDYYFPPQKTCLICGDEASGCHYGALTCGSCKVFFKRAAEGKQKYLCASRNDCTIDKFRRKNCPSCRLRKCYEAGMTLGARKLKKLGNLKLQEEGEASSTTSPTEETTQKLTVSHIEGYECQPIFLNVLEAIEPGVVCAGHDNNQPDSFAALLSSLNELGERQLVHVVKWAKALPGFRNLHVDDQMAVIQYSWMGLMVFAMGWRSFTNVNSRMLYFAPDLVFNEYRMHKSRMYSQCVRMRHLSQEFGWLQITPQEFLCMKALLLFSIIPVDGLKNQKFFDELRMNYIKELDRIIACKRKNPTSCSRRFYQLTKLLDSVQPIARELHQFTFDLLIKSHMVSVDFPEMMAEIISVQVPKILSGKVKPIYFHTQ
# [2] = biological target: T1, Androgen receptor; test: Antagonist activity at human androgen receptor by cell based assay; assay type: functional
# [3] = system: Syrian golden hamster; test: Reduction of cholesterol ester in Syrian golden hamster ear model at 1 % administered topically; assay type: functional, Mesocricetus auratus; parameters: scale not given: the % may be the effect or the level left
# [4] = system: Syrian golden hamster; test: Reduction of wax ester in Syrian golden hamster ear model at 1 % administered topically; assay type: functional, Mesocricetus auratus; parameters: scale not given: the % may be the effect or the level left
# [5] = system: Syrian golden hamster; test: Reduction of cholesterol ester in Syrian golden hamster ear model at 2 % administered topically; assay type: functional, Mesocricetus auratus; parameters: scale not given: the % may be the effect or the level left
# [6] = system: Syrian golden hamster; test: Reduction of wax ester in Syrian golden hamster ear model at 2 % administered topically; assay type: functional, Mesocricetus auratus; parameters: scale not given: the % may be the effect or the level left
# [7] = system: Syrian golden hamster; test: Reduction of wax ester in Syrian golden hamster ear model at 3 % administered topically; assay type: functional, Mesocricetus auratus; parameters: scale not given: the % may be the effect or the level left
# [8] = system: Syrian golden hamster; test: Reduction of cholesterol ester in Syrian golden hamster ear model at 3 % administered topically; assay type: functional, Mesocricetus auratus; parameters: scale not given: the % may be the effect or the level left
# [9] = system: Syrian golden hamster; test: Reduction of cholesterol ester in Syrian golden hamster ear model at 1.5 % administered topically; assay type: functional, Mesocricetus auratus; parameters: scale not given: the % may be the effect or the level left
# [10] = system: Syrian golden hamster; test: Reduction of wax ester in Syrian golden hamster ear model at 1.5 % administered topically; assay type: functional, Mesocricetus auratus; parameters: scale not given: the % may be the effect or the level left
Structure (SMILES),IC50 [1] [nM],IC50 [2] [nM],other results
CC1(C)COC(=O)[C@@H]1Oc1ccc(C#N)c(C(F)(F)F)c1,70,42,
CC1(C)COC(=O)[C@H]1Oc1ccc(C#N)c(C(F)(F)F)c1,10000,1000,
CC1(C)COC(=O)C1Oc1ccc(C#N)c(C(F)(F)F)c1 (racemic),113,70,
CC1(C)CNC(=O)C1Oc1ccc(C#N)c(C(F)(F)F)c1 (racemic),2790,82,
CN1CC(C)(C)C(Oc2ccc(C#N)c(C(F)(F)F)c2)C1=O (racemic),1210,,
CCCN1CC(C)(C)C(Oc2ccc(C#N)c(C(F)(F)F)c2)C1=O (racemic),,24,
CCCCN1CC(C)(C)C(Oc2ccc(C#N)c(C(F)(F)F)c2)C1=O (racemic),119,16,
CCCCCCN1CC(C)(C)C(Oc2ccc(C#N)c(C(F)(F)F)c2)C1=O (racemic),766,,
CCCC(C)N1CC(C)(C)C(Oc2ccc(C#N)c(C(F)(F)F)c2)C1=O (racemic),200,6,
CCC(CC)CN1CC(C)(C)C(Oc2ccc(C#N)c(C(F)(F)F)c2)C1=O (racemic),444,,
CC(C)CCCN1CC(C)(C)C(Oc2ccc(C#N)c(C(F)(F)F)c2)C1=O (racemic),802,,
COCN1CC(C)(C)C(Oc2ccc(C#N)c(C(F)(F)F)c2)C1=O (racemic),516,,
COCCN1CC(C)(C)C(Oc2ccc(C#N)c(C(F)(F)F)c2)C1=O (racemic),1770,,
CSCCN1CC(C)(C)C(Oc2ccc(C#N)c(C(F)(F)F)c2)C1=O (racemic),2450,,
CC1(C)CN(CCCO)C(=O)C1Oc1ccc(C#N)c(C(F)(F)F)c1 (racemic),523,,
COC(=O)CN1CC(C)(C)C(Oc2ccc(C#N)c(C(F)(F)F)c2)C1=O (racemic),494,,
CCOC(=O)CN1CC(C)(C)C(Oc2ccc(C#N)c(C(F)(F)F)c2)C1=O (racemic),3520,,
CCNC(=O)CN1CC(C)(C)C(Oc2ccc(C#N)c(C(F)(F)F)c2)C1=O (racemic),4910,,
CC1(C)CN(Cc2ccccc2)C(=O)C1Oc1ccc(C#N)c(C(F)(F)F)c1 (racemic),30,11,
COc1cccc(CN2CC(C)(C)C(Oc3ccc(C#N)c(C(F)(F)F)c3)C2=O)c1 (racemic),,309,
COc1ccc(CN2CC(C)(C)C(Oc3ccc(C#N)c(C(F)(F)F)c3)C2=O)cc1 (racemic),284,,
CC1(C)CN(Cc2ccccc2F)C(=O)C1Oc1ccc(C#N)c(C(F)(F)F)c1 (racemic),174,44,
CC1(C)CN(Cc2cccc(F)c2)C(=O)C1Oc1ccc(C#N)c(C(F)(F)F)c1 (racemic),48,61,

Structure (SMILES),IC50 [1] [nM],IC50 [2] [nM],other results
CC1(C)CN(Cc2ccc(F)cc2)C(=O)C1Oc1ccc(C#N)c(C(F)(F)F)c1 (racemic),,199,
CC1(C)CN(Cc2ccccc2O)C(=O)C1Oc1ccc(C#N)c(C(F)(F)F)c1 (racemic),,13,
CC1(C)CN(Cc2cccc(O)c2)C(=O)C1Oc1ccc(C#N)c(C(F)(F)F)c1 (racemic),,> 600,
CC1(C)CN(Cc2ccc(O)cc2)C(=O)C1Oc1ccc(C#N)c(C(F)(F)F)c1 (racemic),,32,
CC1(C)CN(Cc2ccccn2)C(=O)C1Oc1ccc(C#N)c(C(F)(F)F)c1 (racemic),767,,
CC1(C)CN(Cc2cccnc2)C(=O)C1Oc1ccc(C#N)c(C(F)(F)F)c1 (racemic),880,,
CC1(C)CN(Cc2ccncc2)C(=O)C1Oc1ccc(C#N)c(C(F)(F)F)c1 (racemic),,> 600,
CCOC(=O)c1ccc(CN2CC(C)(C)C(Oc3ccc(C#N)c(C(F)(F)F)c3)C2=O)o1 (racemic),166,97,
COC(=O)c1csc(CN2CC(C)(C)C(Oc3ccc(C#N)c(C(F)(F)F)c3)C2=O)n1 (racemic),,> 900,
CC1(C)CN(Cc2nc3ccccc3s2)C(=O)C1Oc1ccc(C#N)c(C(F)(F)F)c1 (racemic),,51,
Cc1nc(CN2CC(C)(C)C(Oc3ccc(C#N)c(C(F)(F)F)c3)C2=O)cs1 (racemic),324,,
CC1(C)CN(Cc2noc(-c3ccccc3)n2)C(=O)C1Oc1ccc(C#N)c(C(F)(F)F)c1 (racemic),84,40,
CC1(C)CN(Cc2nc(-c3ccccc3)no2)C(=O)C1Oc1ccc(C#N)c(C(F)(F)F)c1 (racemic),,54,
"CCCN1CC(C)(C)C(Oc2ccc(C#N)c(C(F)(F)F)c2)C1=O (single isomer, unassigned; (+))",225,83,Activity [3]: 76%; Activity [4]: 85%
"CCCCN1CC(C)(C)C(Oc2ccc(C#N)c(C(F)(F)F)c2)C1=O (single isomer, unassigned; (+))",91,10,Activity [5]: 66%; Activity [6]: 83%
"CCC(C)N1CC(C)(C)C(Oc2ccc(C#N)c(C(F)(F)F)c2)C1=O (single isomer, unassigned; (+))",132,32,
"CC1(C)CN(Cc2ccccc2)C(=O)C1Oc1ccc(C#N)c(C(F)(F)F)c1 (single isomer, unassigned; (+))",100,38,Activity [7]: 83%; Activity [8]: 68%
"CC1(C)CN(Cc2ccccc2F)C(=O)C1Oc1ccc(C#N)c(C(F)(F)F)c1 (single isomer, unassigned; (+))",112,92,Activity [7]: 86%; Activity [8]: 70%
"CSc1ccc(CN2CC(C)(C)C(Oc3ccc(C#N)c(C(F)(F)F)c3)C2=O)cc1 (single isomer, unassigned; (+))",316,28,Activity [9]: 75%; Activity [10]: 89%
CCC(C)N1CC(C)(C)C(Oc2ccc(C#N)c(C(F)(F)F)c2)C1=O (stereo in doubt; 18),9790,,
CSc1ccc(CN2CC(C)(C)C(Oc3ccc(C#N)c(C(F)(F)F)c3)C2=O)cc1 (stereo in doubt; 38),187,51,
CC1(C)C(=O)N(c2ccc(C#N)c(C(F)(F)F)c2)C(=O)N1CCCCO [RU-58841],,,Activity [4]: 95%
